# Assay results: ChEMBL document CHEMBL1649188, “Posaconazole therapeutic drug monitoring: a reference laboratory experience” (Antimicrob Agents Chemother, 2009)
# Experiments:
# Format in all cases: ADME, organism-based
# Details in all cases: in vivo
# [1] = species: Homo sapiens; experiment: Drug level in patient serum with chronic graft-versus-host disease by HPLC analysis
# [2] = species: Homo sapiens; experiment: Drug level in patient serum with acute graft-versus-host disease by HPLC analysis
# [3] = species: Homo sapiens; experiment: Drug level in patient serum with invasive aspergillosis by HPLC analysis
# [4] = species: Homo sapiens; experiment: Drug level in patient serum with infection by HPLC analysis
structure (smiles),measurement,setting,value
CC[C@@H]([C@H](C)O)n1ncn(-c2ccc(N3CCN(c4ccc(OC[C@@H]5CO[C@@](Cn6cncn6)(c6ccc(F)cc6F)C5)cc4)CC3)cc2)c1=O [POSACONAZOLE],Drug uptake,[1],1.47 µg/mL
same,Drug uptake,[2],0.958 µg/mL
same,Drug uptake,[3],0.134 µg/mL
same,Drug uptake,[4],0.611 µg/mL
